One data set has as its system interferon (α). The experiment in a line: Cytokine Induction in Human Cells: interferon (α) by ELISA. The data set is classed as cell-based. Also on record: key to Lowest Effective Concentration (μM) Interferon: *: no induction was seen at any of the tested concentrations; generally the highest concentration tested was 10 or 30 μM. The settings on record: human PBMC, 18 to 24 hours incubation, lowest concentration found to induce interferon. From the text: (§1) An in vitro human blood cell system is used to assess cytokine induction. Activity is based on the measurement of interferon and tumor necrosis factor (α) (IFN and TNF, respectively) secreted into culture media as described by Testerman et. al. In “Cytokine Induction by the Immunomodulators Imiquimod and S-27609”, Journal of Leukocyte Biology, 58, 365-372 (September, 1995).
(§2) Whole blood from healthy human donors is collected by venipuncture into EDTA vacutainer tubes. Peripheral blood mononuclear cells (PBMC) are separated from whole blood by density gradient centrifugation using Histopaque®-1077. Blood is diluted 1:1 with Dulbecco's Phosphate Buffered Saline (DPBS) or Hank's Balanced Salts Solution (HBSS). The PBMC layer is collected and washed twice with DPBS or HBSS and resuspended at 4×10^6 cells/mL in RPMI complete. The PBMC suspension is added to 48 well flat bottom sterile tissue culture plates (Costar, Cambridge, Mass. or Becton Dickinson Labware, Lincoln Park, N.J.) containing an equal volume of RPMI complete media containing test compound.
(§3) The compounds are solubilized in dimethyl sulfoxide (DMSO). The DMSO concentration should not exceed a final concentration of 1% for addition to the culture wells. The compounds are generally tested at concentrations ranging from 30-0.014 μM.
(§4) The solution of test compound is added at 60 μM to the first well containing RPMI complete and serial 3 fold dilutions are made in the wells. The PBMC suspension is then added to the wells in an equal volume, bringing the test compound concentrations to the desired range (30-0.014 μM). The final concentration of PBMC suspension is 2×10^6 cells/mL. The plates are covered with sterile plastic lids, mixed gently and then incubated for 18 to 24 hours at 37° C. in a 5% carbon dioxide atmosphere.
(§5) Following incubation the plates are centrifuged for 10 minutes at 1000 rpm (˜200×g) at 4° C. The cell-free culture supernatant is removed with a sterile polypropylene pipet and transferred to sterile polypropylene tubes. Samples are maintained at −30 to −70° C. until analysis. The samples are analyzed for interferon (α) by ELISA and for tumor necrosis factor (α) by ELISA or IGEN Assay
Interferon (α) concentration is determined by ELISA using a Human Multi-Species kit from PBL Biomedical Laboratories, New Brunswick, N.J. Results are expressed in pg/mL.
(§6) The table below lists the lowest concentration found to induce interferon and the lowest concentration found to induce tumor necrosis factor for each compound.
A general note: An ELISA detects its analyte on a solid surface through an enzyme-linked reagent.

In data set [1] the test system is tumor necrosis factor (α). The experiment in a line: Cytokine Induction in Human Cells: tumor necrosis factor (α) by ELISA or IGEN assay. As to conditions: human PBMC, 18 to 24 hours incubation, lowest concentration found to induce tumor necrosis factor. Also on record: key to Lowest Effective Concentration (μM) Tumor Necrosis Factor: *: no induction was seen at any of the tested concentrations; generally the highest concentration tested was 10 or 30 μM. The format is cell-based.
Description: as §1, §2, §3, §4, §5
Tumor necrosis factor (α) (TNF) concentration is determined using ELISA kits available from Biosource International, Camarillo, Calif. Alternately, the TNF concentration can be determined by Origen® M-Series Immunoassay and read on an IGEN M-8 analyzer from IGEN International, Gaithersburg, Md. The immunoassay uses a human TNF capture and detection antibody pair from Biosource International, Camarillo, Calif. Results are expressed in pg/mL.
as §6

Here are results for 15 compounds from patent publication US6677347B2, “Sulfonamido ether substituted imidazoquinolines” (3M Innovative Properties Company, priority 2000, dated 2004).

For `COCCc1nc2c(N)nc3ccccc3c2n1CCOCCNS(C)(=O)=O` [Example 1, N-(2-{2-[4-amino-2-(2-methoxyethyl)-1H-imidazo[4,5-c]quinolin-1-yl]ethoxy}ethyl)methanesulfonamide], the melting point (usually the temperature, or range, at which the solid turns liquid) is 114 to 117 °C. Still for that read-out and setting: in the case of `COCCc1nc2c(N)nc3c(c2n1CCOCCNS(C)(=O)=O)CCCC3` [Example 2, N-(2-{2-[4-amino-2-(2-methoxyethyl)-6,7,8,9-tetrahydro-1H-imidazo[4,5-c]quinolin-1-yl]ethoxy}ethyl)methanesulfonamide] it was 151 to 153 °C; in that of `COCCc1nc2c(N)nc3c(c2n1CCOCCN(C)S(C)(=O)=O)CCCC3` [Example 4, N-(2-{2-[4-amino-2-(2-methoxyethyl)-6,7,8,9-tetrahydro-1H-imidazo[4,5-c]quinolin-1-yl]ethoxy}ethyl)-N-methylmethanesulfonamide], 115.3 to 117.8 °C. On the same count and under the same terms, for `CCCCc1nc2c(N)nc3ccccc3c2n1CCOCCN1CCCS1(=O)=O` [Example 5, 2-Butyl-1-{2-[2-(1,1-dioxidoisothiazolidin-2-yl)ethoxy]ethyl}-1H-imidazo[4,5-c]quinolin-4-amine] the value was 152 to 154 °C. `Nc1nc2ccccc2c2c1ncn2CCOCCNS(=O)(=O)c1ccc(C(F)(F)F)cc1` [Example 46]: the “Lowest Effective Concentration (μM) Interferon” value with interferon (α) was “*”. In addition, the “Lowest Effective Concentration (μM) Tumor Necrosis Factor” value in data set [1] is on record as “*”. `Nc1nc2ccccc2c2c1ncn2CCOCCNS(=O)(=O)c1ccc(-c2ccccc2)cc1` [Example 47]: the “Lowest Effective Concentration (μM) Interferon” value in the data set on interferon (α) was “*”. The “Lowest Effective Concentration (μM) Tumor Necrosis Factor” value in data set [1] is “*”. `CS(=O)(=O)c1ccc(S(=O)(=O)NCCOCCn2cnc3c(N)nc4ccccc4c32)cc1` [Example 48]: the “Lowest Effective Concentration (μM) Interferon” value in the data set on interferon (α) is listed as “*”. For the same compound, the minimal effective concentration (in general, the smallest amount tested that counted as effective) in data set [1] is 10 µM. In the same order, the values of `Nc1nc2ccccc2c2c1ncn2CCOCCNS(=O)(=O)c1ccc(OC(F)(F)F)cc1` [Example 49] are “*” and 10 µM. As for `Cc1nc2c(N)nc3ccccc3c2n1CCCOCCOCCCNS(=O)(=O)c1cccc2c(N(C)C)cccc12` [Example 50, N-[10-(4-amino-2-methyl-1H-imidazo[4,5-c]quinolin-1-yl)-4,7-dioxadecyl]-5-dimethylaminonaphthalene-1-sulfonamide], the minimal effective concentration in the data set with interferon (α) is 1.11 µM. Besides, in data set [1], the “Lowest Effective Concentration (μM) Tumor Necrosis Factor” value is reported as “*”. `Cc1nc2c(N)nc3ccccc3c2n1CCOCCN` [Example 51, 1-[2-(2-aminoethoxy)ethyl]-2-methyl-1H-imidazo[4,5-c]quinolin-4-amine] returned a melting point of 155 to 157 °C. Same read-out and setting: in the case of `CCc1nc2c(N)nc3ccccc3c2n1CCOCCN` [Example 52, 1-[2-(2-aminoethoxy)ethyl]-2-ethyl-1H-imidazo[4,5-c]quinolin-4-amine] it was 144 to 146 °C; in that of `Cc1nc2c(N)nc3ccccc3c2n1CCOCCNS(C)(=O)=O` [Example 54, N-{2-[2-(4-amino-2-methyl-1H-imidazo[4,5-c]quinolin-1-yl)ethoxy]ethyl}methanesulfonamide], 152 to 155 °C; in that of `Cc1nc2c(N)nc3ccccc3c2n1CCOCCNS(=O)(=O)C(C)C` [Example 55, N-{2-[2-(4-amino-2-methyl-1H-imidazo[4,5-c]quinolin-1-yl)ethoxy]ethyl}propane-2-sulfonamide], 172 to 175 °C.

For `CCc1nc2c(N)nc3ccccc3c2n1CCOCCNS(C)(=O)=O` [Example 56, N-{2-[2-(4-amino-2-ethyl-1H-imidazo[4,5-c]quinolin-1-yl)ethoxy]ethyl}methanesulfonamide], the melting point was 169 to 171 °C. On the same count and under the same terms, for `CCOCc1nc2c(N)nc3ccccc3c2n1CCOCCNS(C)(=O)=O` [Example 57, N-(2-{2-[4-amino-2-(ethoxymethyl)-1H-imidazo[4,5-c]quinolin-1-yl]ethoxy}ethyl)methanesulfonamide] the value was 152 to 155 °C.
